# Data taken from ChEMBL document CHEMBL4804286, “3-amino-4-(4-(4 (dimethylcarbamoyl) phenyl)-1,4-diazepan-1-yl) thieno [2,3-b] pyridine-2-carboxamide for use in cancer therapy and formulations comprising the same” (2020).
# Several values for one entry are separate records, joined by “and”; a condition that tells them apart may be missing. Equal values may be shown once. Activity calls are given as the source filed them. No cut-off for these calls is given here.
# Legend:
# [1] = test system: Tyrosine-protein kinase ABL1 (Homo sapiens), P00519 [UNDEFINED MUTATION]; assay: Inhibition of non-phosphorylated human ABL1 […] mutant assessed as percent of control at 2000 nM by KINOMEscan assay relative to control; design: scale not given: the % may be the effect or the level left
# [2] = test system: Tyrosine-protein kinase ABL1 (Homo sapiens), P00519 [M351T]; assay: Inhibition of phosphorylated human ABL1 M351T mutant assessed as percent of control at 2000 nM by KINOMEscan assay relative to control; design: scale not given: the % may be the effect or the level left
# [3] = biological target: Cyclin-dependent kinase 19 (Homo sapiens) (UniProt Q9BWU1); assay: Inhibition of human CDK11 assessed as percent of control at 2000 nM by KINOMEscan assay relative to control; design: scale not given: the % may be the effect or the level left; details: INHIBITOR
# [4] = biological target: Cyclin-dependent kinase-like 3 (Homo sapiens) (UniProt Q8IVW4); assay: Inhibition of human CDKL3 assessed as percent of control at 2000 nM by KINOMEscan assay relative to control; design: scale not given: the % may be the effect or the level left
# [5] = biological target: Serine/threonine-protein kinase DCLK2 (Homo sapiens) (UniProt Q8N568); assay: Inhibition of human DCAMKL2 assessed as percent of control at 2000 nM by KINOMEscan assay relative to control; design: scale not given: the % may be the effect or the level left
# [6] = biological target: Serine/threonine-protein kinase 17B (Homo sapiens) (UniProt O94768); assay: Inhibition of human DRAK2 assessed as percent of control at 2000 nM by KINOMEscan assay relative to control; design: scale not given: the % may be the effect or the level left
# [7] = test system: Epidermal growth factor receptor (Homo sapiens), P00533 [G719S]; assay: Inhibition of human EGFR G719S assessed as percent of control at 2000 nM by KINOMEscan assay relative to control; design: scale not given: the % may be the effect or the level left
# [8] = test system: Epidermal growth factor receptor (Homo sapiens), P00533 [T790M]; assay: Inhibition of human EGFR T790M mutant assessed as percent of control at 2000 nM by KINOMEscan assay relative to control; design: scale not given: the % may be the effect or the level left
# [9] = biological target: Ephrin type-A receptor 1 (Homo sapiens) (UniProt P21709); assay: Inhibition of human EPHA1 assessed as percent of control at 2000 nM by KINOMEscan assay relative to control; design: scale not given: the % may be the effect or the level left
# [10] = biological target: Ephrin type-B receptor 1 (Homo sapiens) (UniProt P54762); assay: Inhibition of human EPHB1 assessed as percent of control at 2000 nM by KINOMEscan assay relative to control; design: scale not given: the % may be the effect or the level left
# [11] = biological target: Receptor-type tyrosine-protein kinase FLT3 (Homo sapiens) (UniProt P36888); assay: Inhibition of human FLT3 assessed as percent of control at 2000 nM by KINOMEscan assay relative to control; design: scale not given: the % may be the effect or the level left
# [12] = test system: Receptor-type tyrosine-protein kinase FLT3 (Homo sapiens), P36888 [UNDEFINED MUTATION]; assay: Inhibition of human FLT3 ITD/F691L double mutant assessed as percent of control at 2000 nM by KINOMEscan assay relative to control; design: scale not given: the % may be the effect or the level left
# [13] = biological target: Rhodopsin kinase GRK7 (Homo sapiens) (UniProt Q8WTQ7); assay: Inhibition of human GRK7 assessed as percent of control at 2000 nM by KINOMEscan assay relative to control; design: scale not given: the % may be the effect or the level left
# [14] = biological target: Tyrosine-protein kinase ITK/TSK (Homo sapiens) (UniProt Q08881); assay: Inhibition of human ITK assessed as percent of control at 2000 nM by KINOMEscan assay relative to control; design: scale not given: the % may be the effect or the level left
# [15] = biological target: Serine/threonine-protein kinase 10 (Homo sapiens) (UniProt O94804); assay: Inhibition of human LOK assessed as percent of control at 2000 nM by KINOMEscan assay relative to control; design: scale not given: the % may be the effect or the level left
# [16] = biological target: Tyrosine-protein kinase Lyn (Homo sapiens) (UniProt P07948); assay: Inhibition of human LYN assessed as percent of control at 2000 nM by KINOMEscan assay relative to control; design: scale not given: the % may be the effect or the level left
# [17] = biological target: Mitogen-activated protein kinase kinase kinase 13 (Homo sapiens) (UniProt O43283); assay: Inhibition of human LZK assessed as percent of control at 2000 nM by KINOMEscan assay relative to control; design: scale not given: the % may be the effect or the level left
# [18] = biological target: Dual specificity mitogen-activated protein kinase kinase 5 (Homo sapiens) (UniProt Q13163); assay: Inhibition of human MEK5 assessed as percent of control at 2000 nM by KINOMEscan assay relative to control; design: scale not given: the % may be the effect or the level left
# [19] = biological target: Dual specificity mitogen-activated protein kinase kinase 7 (Homo sapiens) (UniProt O14733); assay: Inhibition of human MKK7 assessed as percent of control at 2000 nM by KINOMEscan assay relative to control; design: scale not given: the % may be the effect or the level left
# [20] = biological target: Serine/threonine-protein kinase 4 (Homo sapiens) (UniProt Q13043); assay: Inhibition of human MST1 assessed as percent of control at 2000 nM by KINOMEscan assay relative to control; design: scale not given: the % may be the effect or the level left
# [21] = biological target: Macrophage-stimulating protein receptor (Homo sapiens) (UniProt Q04912); assay: Inhibition of human MST1R assessed as percent of control at 2000 nM by KINOMEscan assay relative to control; design: scale not given: the % may be the effect or the level left
# [22] = biological target: Mitogen-activated protein kinase kinase kinase 14 (Homo sapiens) (UniProt Q99558); assay: Inhibition of human NIK assessed as percent of control at 2000 nM by KINOMEscan assay relative to control; design: scale not given: the % may be the effect or the level left
# [23] = biological target: 3-phosphoinositide-dependent protein kinase 1 (Homo sapiens) (UniProt O15530); assay: Inhibition of human PDPK1 assessed as percent of control at 2000 nM by KINOMEscan assay relative to control; design: scale not given: the % may be the effect or the level left
# [24] = biological target: Phosphatidylinositol 4,5-bisphosphate 3-kinase catalytic subunit gamma isoform (Homo sapiens) (UniProt P48736); assay: Inhibition of human PIK3CG assessed as percent of control at 2000 nM by KINOMEscan assay relative to control; design: scale not given: the % may be the effect or the level left
# [25] = biological target: cAMP-dependent protein kinase catalytic subunit beta (Homo sapiens) (UniProt P22694); assay: Inhibition of human PKAC-beta assessed as percent of control at 2000 nM by KINOMEscan assay relative to control; design: scale not given: the % may be the effect or the level left
# [26] = biological target: Serine/threonine-protein kinase PLK2 (Homo sapiens) (UniProt Q9NYY3); assay: Inhibition of human PLK2 assessed as percent of control at 2000 nM by KINOMEscan assay relative to control; design: scale not given: the % may be the effect or the level left
# [27] = biological target: Serine/threonine-protein kinase D3 (Homo sapiens) (UniProt O94806); assay: Inhibition of human PRKD3 assessed as percent of control at 2000 nM by KINOMEscan assay relative to control; design: scale not given: the % may be the effect or the level left
# [28] = biological target: Ribosomal protein S6 kinase alpha-5 (Homo sapiens) (UniProt O75582); assay: Inhibition of human C-terminal RPS6KA5 kinase domain 2 assessed as percent of control at 2000 nM by KINOMEscan assay relative to control; design: scale not given: the % may be the effect or the level left
# [29] = biological target: Serine/threonine-protein kinase tousled-like 2 (Homo sapiens) (UniProt Q86UE8); assay: Inhibition of human TLK2 assessed as percent of control at 2000 nM by KINOMEscan assay relative to control; design: scale not given: the % may be the effect or the level left
# [30] = biological target: Serine/threonine-protein kinase 32B (Homo sapiens) (UniProt Q9NY57); assay: Inhibition of human YANK2 assessed as percent of control at 2000 nM by KINOMEscan assay relative to control; design: scale not given: the % may be the effect or the level left
# [31] = test system: Myc-CaP; assay: Inhibition of colony formation in murine castration-resistant Myc-CaP cells at 1 uM by clonogenic assay; type: functional; details: Mus musculus
# Serine/threonine-protein kinase D3 (Homo sapiens), sequence (O94806 whole entry, the tested form may be a part): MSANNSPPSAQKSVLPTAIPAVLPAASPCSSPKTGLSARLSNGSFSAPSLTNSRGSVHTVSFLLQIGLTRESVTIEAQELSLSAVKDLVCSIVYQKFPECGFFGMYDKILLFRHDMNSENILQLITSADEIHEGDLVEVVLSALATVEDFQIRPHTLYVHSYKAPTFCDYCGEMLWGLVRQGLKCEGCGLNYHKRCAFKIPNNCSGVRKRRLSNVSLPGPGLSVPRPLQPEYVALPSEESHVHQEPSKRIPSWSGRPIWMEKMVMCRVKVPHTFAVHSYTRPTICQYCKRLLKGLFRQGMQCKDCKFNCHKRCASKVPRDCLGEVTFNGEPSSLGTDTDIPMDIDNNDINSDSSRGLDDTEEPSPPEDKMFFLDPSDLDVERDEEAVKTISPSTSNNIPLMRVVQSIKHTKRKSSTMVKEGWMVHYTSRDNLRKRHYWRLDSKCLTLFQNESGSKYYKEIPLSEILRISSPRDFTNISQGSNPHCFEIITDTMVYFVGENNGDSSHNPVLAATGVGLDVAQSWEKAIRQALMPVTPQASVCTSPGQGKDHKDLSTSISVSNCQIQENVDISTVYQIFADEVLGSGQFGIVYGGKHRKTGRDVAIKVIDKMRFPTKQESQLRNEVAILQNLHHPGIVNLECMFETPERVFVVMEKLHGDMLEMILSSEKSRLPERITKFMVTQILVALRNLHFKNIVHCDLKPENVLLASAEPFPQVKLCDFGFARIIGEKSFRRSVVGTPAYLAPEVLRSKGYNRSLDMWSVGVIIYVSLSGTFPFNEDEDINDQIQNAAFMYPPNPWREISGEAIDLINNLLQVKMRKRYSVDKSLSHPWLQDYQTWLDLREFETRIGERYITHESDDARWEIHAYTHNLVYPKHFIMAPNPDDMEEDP
# Mitogen-activated protein kinase kinase kinase 13 (Homo sapiens), sequence (O43283 whole entry): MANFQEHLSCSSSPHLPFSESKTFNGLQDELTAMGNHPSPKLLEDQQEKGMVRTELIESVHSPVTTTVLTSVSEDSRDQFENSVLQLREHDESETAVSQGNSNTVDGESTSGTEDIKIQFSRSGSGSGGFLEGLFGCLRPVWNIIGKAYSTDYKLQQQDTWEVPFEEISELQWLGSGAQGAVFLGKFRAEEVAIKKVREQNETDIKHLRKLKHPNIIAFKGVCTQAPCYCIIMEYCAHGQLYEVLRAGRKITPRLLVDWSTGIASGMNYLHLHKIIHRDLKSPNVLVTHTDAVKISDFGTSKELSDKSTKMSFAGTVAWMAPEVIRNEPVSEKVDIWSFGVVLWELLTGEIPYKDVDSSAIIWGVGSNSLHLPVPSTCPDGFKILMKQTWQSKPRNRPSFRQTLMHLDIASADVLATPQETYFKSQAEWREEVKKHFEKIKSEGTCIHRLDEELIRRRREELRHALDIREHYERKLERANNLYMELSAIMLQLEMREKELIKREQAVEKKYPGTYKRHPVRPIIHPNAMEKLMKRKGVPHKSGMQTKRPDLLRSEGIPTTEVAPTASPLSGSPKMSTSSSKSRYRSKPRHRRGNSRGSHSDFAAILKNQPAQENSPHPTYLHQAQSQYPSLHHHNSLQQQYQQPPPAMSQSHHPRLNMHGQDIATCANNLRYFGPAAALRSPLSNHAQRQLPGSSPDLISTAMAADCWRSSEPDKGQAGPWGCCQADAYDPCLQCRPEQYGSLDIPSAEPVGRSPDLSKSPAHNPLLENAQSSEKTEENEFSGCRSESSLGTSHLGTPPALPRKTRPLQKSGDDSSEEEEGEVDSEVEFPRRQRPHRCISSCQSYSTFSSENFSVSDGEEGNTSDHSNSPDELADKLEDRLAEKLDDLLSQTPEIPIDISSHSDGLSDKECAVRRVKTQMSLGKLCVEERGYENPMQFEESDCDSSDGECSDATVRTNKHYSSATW
# Ribosomal protein S6 kinase alpha-5 (Homo sapiens), sequence (O75582 whole entry, looked up, the tested form may be a part): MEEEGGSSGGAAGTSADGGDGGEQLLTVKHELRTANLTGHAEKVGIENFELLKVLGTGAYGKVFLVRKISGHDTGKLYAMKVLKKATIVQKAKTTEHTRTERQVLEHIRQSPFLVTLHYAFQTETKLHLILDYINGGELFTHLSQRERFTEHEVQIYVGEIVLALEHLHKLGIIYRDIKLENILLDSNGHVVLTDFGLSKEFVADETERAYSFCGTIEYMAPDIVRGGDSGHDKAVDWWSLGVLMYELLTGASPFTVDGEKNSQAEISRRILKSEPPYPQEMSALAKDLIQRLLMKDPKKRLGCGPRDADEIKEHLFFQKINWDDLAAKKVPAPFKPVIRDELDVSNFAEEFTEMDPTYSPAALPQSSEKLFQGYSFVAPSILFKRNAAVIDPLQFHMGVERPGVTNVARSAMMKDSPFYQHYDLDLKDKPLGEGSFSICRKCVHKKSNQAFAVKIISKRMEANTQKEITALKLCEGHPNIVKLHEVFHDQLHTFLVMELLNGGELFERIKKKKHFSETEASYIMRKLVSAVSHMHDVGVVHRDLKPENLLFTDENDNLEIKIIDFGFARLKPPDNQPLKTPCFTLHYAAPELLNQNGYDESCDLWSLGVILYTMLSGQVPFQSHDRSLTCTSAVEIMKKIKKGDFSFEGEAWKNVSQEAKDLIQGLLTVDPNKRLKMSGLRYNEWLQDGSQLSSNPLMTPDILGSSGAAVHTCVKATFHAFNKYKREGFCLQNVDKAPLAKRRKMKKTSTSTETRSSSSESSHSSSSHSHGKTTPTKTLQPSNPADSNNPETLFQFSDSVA
# Rhodopsin kinase GRK7 (Homo sapiens), sequence (Q8WTQ7 whole entry): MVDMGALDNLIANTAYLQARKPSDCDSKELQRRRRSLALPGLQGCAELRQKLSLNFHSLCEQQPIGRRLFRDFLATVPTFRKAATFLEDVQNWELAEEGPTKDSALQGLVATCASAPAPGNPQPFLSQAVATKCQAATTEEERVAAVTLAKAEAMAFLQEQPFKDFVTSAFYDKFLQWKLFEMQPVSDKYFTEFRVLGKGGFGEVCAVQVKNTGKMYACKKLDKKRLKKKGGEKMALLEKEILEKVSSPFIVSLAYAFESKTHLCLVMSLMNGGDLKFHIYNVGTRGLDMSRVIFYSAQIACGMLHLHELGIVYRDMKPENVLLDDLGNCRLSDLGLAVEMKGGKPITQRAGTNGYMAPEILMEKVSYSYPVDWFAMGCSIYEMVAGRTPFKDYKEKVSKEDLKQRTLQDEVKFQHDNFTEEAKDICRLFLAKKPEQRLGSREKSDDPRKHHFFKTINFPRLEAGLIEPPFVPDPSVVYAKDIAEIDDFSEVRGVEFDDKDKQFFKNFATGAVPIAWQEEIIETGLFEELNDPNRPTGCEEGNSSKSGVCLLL
# Mitogen-activated protein kinase kinase kinase 14 (Homo sapiens), sequence (Q99558 whole entry, looked up): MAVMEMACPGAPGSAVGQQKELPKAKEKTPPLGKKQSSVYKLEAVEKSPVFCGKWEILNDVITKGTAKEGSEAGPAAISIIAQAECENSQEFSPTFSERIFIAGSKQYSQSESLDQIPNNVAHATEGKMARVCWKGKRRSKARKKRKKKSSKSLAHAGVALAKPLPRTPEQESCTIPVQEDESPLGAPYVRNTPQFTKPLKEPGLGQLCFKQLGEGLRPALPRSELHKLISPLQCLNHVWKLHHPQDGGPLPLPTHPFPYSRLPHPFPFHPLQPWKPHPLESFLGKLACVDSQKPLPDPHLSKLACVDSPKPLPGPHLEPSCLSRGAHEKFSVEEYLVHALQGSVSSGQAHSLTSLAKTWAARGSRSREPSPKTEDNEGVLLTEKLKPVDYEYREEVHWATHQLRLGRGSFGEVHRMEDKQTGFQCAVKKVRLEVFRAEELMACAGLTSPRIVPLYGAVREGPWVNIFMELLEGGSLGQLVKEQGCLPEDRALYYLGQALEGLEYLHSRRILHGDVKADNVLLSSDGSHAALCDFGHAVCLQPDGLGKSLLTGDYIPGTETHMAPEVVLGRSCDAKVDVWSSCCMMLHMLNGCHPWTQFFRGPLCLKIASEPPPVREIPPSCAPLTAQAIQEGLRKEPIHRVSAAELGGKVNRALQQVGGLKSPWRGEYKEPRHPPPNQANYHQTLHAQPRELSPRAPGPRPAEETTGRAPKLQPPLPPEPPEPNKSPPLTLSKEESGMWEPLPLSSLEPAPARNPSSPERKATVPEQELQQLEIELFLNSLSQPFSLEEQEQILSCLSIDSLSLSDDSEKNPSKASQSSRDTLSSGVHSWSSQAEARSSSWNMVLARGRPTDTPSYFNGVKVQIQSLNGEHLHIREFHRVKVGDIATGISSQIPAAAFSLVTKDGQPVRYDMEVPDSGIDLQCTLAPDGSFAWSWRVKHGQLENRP
# Serine/threonine-protein kinase 4 (Homo sapiens), sequence (Q13043 whole entry): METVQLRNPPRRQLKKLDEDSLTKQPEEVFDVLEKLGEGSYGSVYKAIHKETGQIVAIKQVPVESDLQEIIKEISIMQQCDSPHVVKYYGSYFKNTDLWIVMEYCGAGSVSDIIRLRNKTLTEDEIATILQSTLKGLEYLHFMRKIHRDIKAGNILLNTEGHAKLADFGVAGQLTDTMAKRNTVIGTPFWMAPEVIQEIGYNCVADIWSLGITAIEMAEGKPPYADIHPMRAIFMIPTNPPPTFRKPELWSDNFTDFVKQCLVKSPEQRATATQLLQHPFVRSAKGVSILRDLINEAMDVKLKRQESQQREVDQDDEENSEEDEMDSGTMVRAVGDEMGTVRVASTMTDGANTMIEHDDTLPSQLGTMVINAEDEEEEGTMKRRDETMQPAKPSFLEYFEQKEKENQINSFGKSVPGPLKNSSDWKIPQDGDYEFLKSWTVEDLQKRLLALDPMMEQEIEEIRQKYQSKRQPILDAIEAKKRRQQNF
# Serine/threonine-protein kinase 32B (Homo sapiens), sequence (Q9NY57 whole entry): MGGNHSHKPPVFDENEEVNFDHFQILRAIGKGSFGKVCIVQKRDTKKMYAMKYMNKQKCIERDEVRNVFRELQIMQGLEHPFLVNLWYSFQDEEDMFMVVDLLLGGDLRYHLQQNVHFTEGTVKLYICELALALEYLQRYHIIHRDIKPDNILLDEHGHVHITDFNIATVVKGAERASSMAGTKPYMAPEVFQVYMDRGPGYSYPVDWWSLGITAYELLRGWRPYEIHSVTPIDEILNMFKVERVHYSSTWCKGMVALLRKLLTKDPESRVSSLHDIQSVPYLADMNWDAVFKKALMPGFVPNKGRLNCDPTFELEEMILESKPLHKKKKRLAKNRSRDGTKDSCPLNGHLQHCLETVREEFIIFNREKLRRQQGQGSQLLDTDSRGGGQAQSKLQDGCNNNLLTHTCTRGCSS
smiles,measurement,setting,value
CN(C)C(=O)c1ccc(N2CCCN(c3ccnc4sc(C(N)=O)c(N)c34)CC2)cc1,Activity,[1],100% and 76%
same,Activity,[2],77%
same,Activity,[2]; INHIBITOR,10%
same,Activity,[3],13% and 0%
same,Activity,[4],100%
same,Activity,[5],100%
same,Activity,[6],100% and 87%
same,Activity,[7],100%
same,Activity,[8],98% and 87%
same,Activity,[9],92% and 95%
same,Activity,[10],88%
same,Activity,[11],94% and 86%
same,Activity,[12],95% and 75%
same,Activity,[13],100% and 92%
same,Activity,[14],88% and 87%
same,Activity,[15],84% and 69%
same,Activity,[16],100% and 98%
same,Activity,[17],100% and 87%
same,Activity,[18],86% and 65%
same,Activity,[19],100% and 85%
same,Activity,[20],100% and 98%
same,Activity,[21],97% and 99%
same,Activity,[22],100% and 97%
same,Activity,[23],100% and 96%
same,Activity,[24],79% and 76%
same,Activity,[25],83% and 100%
same,Activity,[26],100% and 86%
same,Activity,[27],94% and 100%
same,Activity,[28],95% and 100%
same,Activity,[29],100% and 97%
same,Activity,[30],89% and 84%
same,inhibition,[31],Active
